Test results published in US20200188431A1, “GLUTAMINE DEHYDROGENASE INHIBITORS FOR USE IN MUSCLE REGENERATION” (VIB VZW, priority 2017, published 2020).

Experiments:
[1] = target: T1, GLUD1 (Mus musculus, UniProt P26443); test: Hindlimb ischemia (femoral artery ligation), R162 by bi-daily gavage; assay type: in vivo; conditions: crural muscles 14 days after ligation; wild type mice; bi-daily R162 vs vehicle
T1 construct: from tissue; host or cells: living C57BL/6 wild-type mice; systemic exposure, read-out in tibialis anterior / crural muscle
T1 sequence (P26443 54-558): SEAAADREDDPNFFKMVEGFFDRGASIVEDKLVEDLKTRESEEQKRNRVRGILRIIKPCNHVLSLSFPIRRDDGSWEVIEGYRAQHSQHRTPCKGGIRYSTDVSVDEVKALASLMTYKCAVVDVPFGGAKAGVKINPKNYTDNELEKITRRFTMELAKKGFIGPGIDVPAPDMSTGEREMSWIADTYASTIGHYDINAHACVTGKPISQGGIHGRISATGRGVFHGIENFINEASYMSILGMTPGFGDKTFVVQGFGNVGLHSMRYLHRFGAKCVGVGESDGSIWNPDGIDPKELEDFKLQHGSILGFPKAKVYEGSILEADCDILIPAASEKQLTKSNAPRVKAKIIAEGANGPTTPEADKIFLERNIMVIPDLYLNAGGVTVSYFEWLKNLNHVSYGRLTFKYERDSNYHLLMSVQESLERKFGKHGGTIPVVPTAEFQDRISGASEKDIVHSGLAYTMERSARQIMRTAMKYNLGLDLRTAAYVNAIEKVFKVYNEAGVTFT
Method: h-j: Quantification of the necrotic area (h) and intact differentiated fibers (i) on H&E-stained sections (j) from crural muscles 14 days after ligation. Wild type mice were bi-daily treated with R162, or vehicle as control.
k-l: Quantification (k) and representative images (l) of F4/80^+ area in crural muscles, 14 days after ligation. Wild type mice were bi-daily treated with R162, or vehicle as control.
(§1) Mice were anaesthetized with isoflurane and 50 μl of 10 μM CTX was injected in the tibialis anterior (TA) muscle. Muscles were harvested for analysis at different time points post-injury (day 1 and day 6). In vivo GLUD1 inhibition was achieved by bi-daily gavage of R162 (Focus Biomolecules) at 0.6 mg/mouse. Mice were pretreated 1 day before CTX injection or ischemic ligation. Afterwards, mice continued to receive daily treatment until their sacrifice. To inhibit SLC1A5, mice were treated 3 times per day with 500 mM GPNA (Sigma-Aldrich). […]
(§2) 7 μm-thick cryosections were obtained by using a Leica cryostat from frozen muscles collected in optimal cutting temperature compound (OCT). […] Necrotic and regenerating muscle fibers, were detected by H&E staining as previously described (Takeda et al. 2011, Nature 479:122-126) and analysed by ImageJ software. […] Whenever sections were stained in fluorescence, ProLong Gold mounting medium with or without DAPI (Invitrogen) was used. […]

[2] = tested on: GLUD1; conditions: cited from earlier work
[3] = target: T1, GLUD1; test: Cardiotoxin (CTX) muscle injury of tibialis anterior, R162 by bi-daily gavage; assay type: in vivo; conditions: wild type mice
Excerpt: a-c: Quantification of regenerating fibers (a) and intact differentiated fibers (b) on H&E-stained sections (c) from TA muscles 6 days after CTX injury. Wild type mice were bi-daily treated with R162, or vehicle as control.
d-e: Quantification (d) and representative images (e) of F4/80^+ area in TA muscles, 6 days after CTX injury. Wild type mice were bi-daily treated with R162, or vehicle as control.
f-g: Quantification (f) and representative images (g) of proliferating muscle precursors on sections of TA muscles 1 day after CTX injury, stained for PHH3 and laminin. Wild type mice were bi-daily treated with R162, or vehicle as control.
Mice were anaesthetized with isoflurane and 50 μl of 10 μM CTX was injected in the tibialis anterior (TA) muscle. Muscles were harvested for analysis at different time points post-injury (day 1 and day 6). In vivo GLUD1 inhibition was achieved by bi-daily gavage of R162 (Focus Biomolecules) at 0.6 mg/mouse. Mice were pretreated 1 day before CTX injection or ischemic ligation. Afterwards, mice continued to receive daily treatment until their sacrifice. To inhibit SLC1A5, mice were treated 3 times per day with 500 mM GPNA (Sigma-Aldrich). CTX was injected 1 hour after the first gavage, and mice were sacrificed 24 hours afterwards.
7 μm-thick cryosections were obtained by using a Leica cryostat from frozen muscles collected in optimal cutting temperature compound (OCT). Alternatively, tibialis anterior and calf muscles (gastrocnemius) were fixed in 2% paraformaldehyde, dehydrated, embedded in paraffin, and sectioned at 7 μm thickness. Necrotic and regenerating muscle fibers, were detected by H&E staining as previously described (Takeda et al. 2011, Nature 479:122-126) and analysed by ImageJ software. After deparaffinization and rehydration, muscle sections were permeabilized by a solution containing 1% BSA, 0.2% Triton-X in PBS 30 min at RT and blocked with Donkey serum (Sigma)1 h at RT. […] Whenever sections were stained in fluorescence, ProLong Gold mounting medium with or without DAPI (Invitrogen) was used. […]

[4] = target: T2, glutamine transporter SLC1A5 (Mus musculus, UniProt P51912); test: CTX muscle injury with SLC1A5 inhibition by GPNA, proliferating muscle precursors; assay type: in vivo, mice; parameters: from tissue; host or cells: living CTRL and Glud1 ΔMo mice (C57BL/6); read-out in tibialis anterior muscle; conditions: Glud1ΔMo TA muscles 1 day after CTX injury; GPNA 3 times per day, oral, vs vehicle
T2 sequence (P51912 1-553): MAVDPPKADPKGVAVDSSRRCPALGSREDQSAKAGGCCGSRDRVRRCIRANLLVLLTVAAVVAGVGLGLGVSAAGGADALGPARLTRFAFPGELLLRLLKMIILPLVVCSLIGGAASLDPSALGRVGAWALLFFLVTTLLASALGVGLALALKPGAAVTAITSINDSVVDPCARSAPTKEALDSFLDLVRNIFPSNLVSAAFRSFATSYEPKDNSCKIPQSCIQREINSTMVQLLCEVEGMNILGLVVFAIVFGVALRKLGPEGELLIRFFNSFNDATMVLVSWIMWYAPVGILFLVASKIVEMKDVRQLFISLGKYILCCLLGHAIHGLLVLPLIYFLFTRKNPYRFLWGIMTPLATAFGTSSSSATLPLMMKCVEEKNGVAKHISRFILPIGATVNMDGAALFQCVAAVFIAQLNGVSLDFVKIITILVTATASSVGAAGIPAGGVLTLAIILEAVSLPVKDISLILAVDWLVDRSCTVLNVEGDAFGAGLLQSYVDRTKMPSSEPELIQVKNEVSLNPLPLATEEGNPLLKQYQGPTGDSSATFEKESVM
Method: m: Quantification of proliferating muscle precursors on sections of TA muscles 1 day after CTX injury, stained for PHH3 and laminin. CTRL and Glud1^ΔM0 mice were treated 3 times per day with the SLC1A5 inhibitor GPNA, or vehicle as control. Number of samples included in the analysis: CTRL with vehicle, n=5; Glud1^ΔMo with vehicle, n=5; CTRL with GPNA, n=8; Glud1^ΔMo with GPNA, n=8.
as §1, §2

[5] = target: T2, glutamine transporter SLC1A5; test: [U-14C]-glutamine uptake in C2C12 cells; assay type: cell-based, murine; parameters: endogenous in cells; host or cells: C2C12 myoblast cell line
Method: e: [U-^14C]-glutamine uptake in SLC1A5-deficient C2C12 cells obtained by co-expressing the Cas9 along with a gRNA targeting the Slc1a5 locus. Wild type cells (Ctrl) and a non-targeting scrambled (Scrl) gRNA were used as negative controls. C2C12 cells treated with SLC1A5 inhibitor gamma-L-Glutamyl-p-Nitroanilide (GPNA) was used as a positive control.
BMDMs were incubated in M199 medium (Gibco) supplemented with 10% FBS and 0.5 μCi/ml [U-^14C]-glutamine for 30 min at 37° C. Cells were lysed in 1N NaOH and the radioactivity was measured by liquid scintillation counting.

[6] = target: glutamine synthetase (GS) (Mus musculus, UniProt P15105); conditions: GLUD1-deficient BMDMs, glutamine deprivation, 1 mM MSO for 48 hours
Sequence of glutamine synthetase (GS) (P15105 2-373 limits assumed): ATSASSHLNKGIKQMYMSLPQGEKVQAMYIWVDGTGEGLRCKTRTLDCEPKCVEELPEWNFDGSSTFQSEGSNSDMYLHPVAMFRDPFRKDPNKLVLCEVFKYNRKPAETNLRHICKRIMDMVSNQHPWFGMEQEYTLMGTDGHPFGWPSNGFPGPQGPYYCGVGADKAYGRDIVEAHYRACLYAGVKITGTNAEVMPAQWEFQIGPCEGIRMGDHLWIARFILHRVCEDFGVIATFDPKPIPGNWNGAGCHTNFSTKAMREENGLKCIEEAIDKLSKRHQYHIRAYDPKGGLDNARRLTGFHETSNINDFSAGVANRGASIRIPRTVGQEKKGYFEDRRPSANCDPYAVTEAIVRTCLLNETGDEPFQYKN
Method: o: Quantification (by GC-MS) of extracellular glutamine content from BMDMs under glutamine deprivation treated with and without MSO.
Briefly, bone marrow cells (1.6×10^6 cells/ml) were cultured in a volume of 6 ml in a 10 cm Petri dish in DMEM supplemented with 20% FBS and 30% L929 conditioned medium as a source of M-CSF. After 3 days of culture, an additional 3 ml of differentiation medium was added. At day 7, macrophages were harvested with ice cold Ca2^+ and Mg2^+-free PBS. The cells obtained were uniformly macrophages as assessed by FACS, using the pan-macrophage marker F4/80.
For mass spectrometry analysis of glutamate and glutamine, 2×10^6 cell pellets were washed twice in PBS and extracted in 500 μl of 80% methanol (80-20, methanol-water). Upon extraction, samples were centrifuged at 20.000×g for 15 min and the supernatant was dried using a vacuum centrifuge. Twenty-five μl of a 2% methoxyamine hydrochloride solution (20 mg dissolved in 1 ml pyridine) were added to the dried pellet and the tubes were then placed at 37° C. for 90 min. […] The mass spectrometer operated in SIM mode, glutamine and glutamate were determined from the m/z 341.2 and 342.2 respectively. For the quantification we used the Agilent Masshunter Quan tool.

C=CCc1ccc2c(c1O)C(=O)c1ccccc1C2=O [R162, 2-allyl-1-hydroxy-9,10-anthraquinone]
inflammatory response (F4/80+ area) [1]: resolution of the inflammatory response | repair of the necrotic damage (necrotic area and intact differentiated fibers on H&E-stained sections) [1]: improved repair of the necrotic damage | effect on tumor growth ([2]; Jin et al. 2015): therapeutic effect on tumor growth | safety of use ([2]; mouse models of cancer therapy, Palmieri et al. 2017): safely used in mouse models of cancer therapy | increase in the number of PHH3+ cells (proliferating muscle precursors) upon damage ([3]; TA muscles 1 day after CTX injury, bi-daily oral gavage of R162 vs vehicle): 60% | quality of the muscle (regenerating fibers and intact differentiated fibers on H&E-stained sections) ([3]; TA muscles 6 days after CTX injury, bi-daily oral gavage of R162 0.6 mg/mouse vs vehicle): strongly improved the quality of the muscle | inflammation (F4/80+ area) ([3]; TA muscles 6 days after CTX injury, bi-daily oral gavage of R162 vs vehicle): reduced inflammation

N[C@@H](CCC(=O)Nc1ccc([N+](=O)[O-])cc1)C(=O)O [GPNA, gamma-L-Glutamyl-p-Nitroanilide]
abundance of proliferating myogenic precursors (PHH3, laminin) [4]: abolished the abundance of proliferating myogenic precursors | block of glutamine uptake [5]: 75%

CS(=N)(=O)CC[C@H](N)C(=O)O (stereo partly drawn) [MSO, L-methionine-SR-sulfoximine]
extracellular glutamine production [6]: rescued back to the CTRL levels
